Test results as given in patent publication US11174268B2, “Benzenesulfonamide compouds and their use as therapeutic agents” (Xenon Pharmaceuticals Inc., priority 2016, dated 2021).

Key:
NaV1.6 [1] = target: T1, NaV1.6 (Homo sapiens (Human), UniProt Q9UQD0); test: Sodium Influx Assay (Flux), NaV1.6; format: cell-based; settings: Trex HEK293 cells, ANG2 dye, inactivated state;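 note: Tetracycline-induced cells, compounds applied for one hour at room temperature with modulators holding channels open, IC50 from percent inhibition of sodium influx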
NaV1.5 = NaV1.5 (Homo sapiens (Human), UniProt Q14524); test: Sodium Influx Assay (Flux), NaV1.5; settings: read-out: Flux NaV1.5 IC50; Trex HEK293 cells, ANG2 dye, inactivated state
NaV1.1 [2] = target: T2, NaV1.1 (Homo sapiens (Human), UniProt P35498); test: Sodium Influx Assay (Flux), NaV1.1; format: cell-based; settings: Trex HEK293 cells, ANG2 dye, inactivated state;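 note: channels co-expressed with human β1 subunit and held open by modulators, cells exposed to compounds for one hour at room temperature, IC50 from percent inhibition of influx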
NaV1.6 [3] = target: T1, NaV1.6; test: Electrophysiological Assay (EP), patch voltage clamp, NaV1.6; format: cell-based; settings: HEK-293 cells, whole-cell patch clamp;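 note: sodium current recorded at ambient temperature, channels held inactivated then briefly repolarized to −150 mV for 20 ms before a test pulse, control currents in 0.5% DMSO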
NaV1.1 [4] = target: T2, NaV1.1; test: Electrophysiological Assay (EP), patch voltage clamp, NaV1.1; format: cell-based; settings: HEK-293 cells, whole-cell patch clamp;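 note: sodium current block measured at ambient temperature, holding at fully inactivating potential, 20 ms repolarization to −150 mV before test pulse, versus 0.5% DMSO control currents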

Chain of NaV1.5 (Q14524 other isoform, or with tags, fused parts or gaps): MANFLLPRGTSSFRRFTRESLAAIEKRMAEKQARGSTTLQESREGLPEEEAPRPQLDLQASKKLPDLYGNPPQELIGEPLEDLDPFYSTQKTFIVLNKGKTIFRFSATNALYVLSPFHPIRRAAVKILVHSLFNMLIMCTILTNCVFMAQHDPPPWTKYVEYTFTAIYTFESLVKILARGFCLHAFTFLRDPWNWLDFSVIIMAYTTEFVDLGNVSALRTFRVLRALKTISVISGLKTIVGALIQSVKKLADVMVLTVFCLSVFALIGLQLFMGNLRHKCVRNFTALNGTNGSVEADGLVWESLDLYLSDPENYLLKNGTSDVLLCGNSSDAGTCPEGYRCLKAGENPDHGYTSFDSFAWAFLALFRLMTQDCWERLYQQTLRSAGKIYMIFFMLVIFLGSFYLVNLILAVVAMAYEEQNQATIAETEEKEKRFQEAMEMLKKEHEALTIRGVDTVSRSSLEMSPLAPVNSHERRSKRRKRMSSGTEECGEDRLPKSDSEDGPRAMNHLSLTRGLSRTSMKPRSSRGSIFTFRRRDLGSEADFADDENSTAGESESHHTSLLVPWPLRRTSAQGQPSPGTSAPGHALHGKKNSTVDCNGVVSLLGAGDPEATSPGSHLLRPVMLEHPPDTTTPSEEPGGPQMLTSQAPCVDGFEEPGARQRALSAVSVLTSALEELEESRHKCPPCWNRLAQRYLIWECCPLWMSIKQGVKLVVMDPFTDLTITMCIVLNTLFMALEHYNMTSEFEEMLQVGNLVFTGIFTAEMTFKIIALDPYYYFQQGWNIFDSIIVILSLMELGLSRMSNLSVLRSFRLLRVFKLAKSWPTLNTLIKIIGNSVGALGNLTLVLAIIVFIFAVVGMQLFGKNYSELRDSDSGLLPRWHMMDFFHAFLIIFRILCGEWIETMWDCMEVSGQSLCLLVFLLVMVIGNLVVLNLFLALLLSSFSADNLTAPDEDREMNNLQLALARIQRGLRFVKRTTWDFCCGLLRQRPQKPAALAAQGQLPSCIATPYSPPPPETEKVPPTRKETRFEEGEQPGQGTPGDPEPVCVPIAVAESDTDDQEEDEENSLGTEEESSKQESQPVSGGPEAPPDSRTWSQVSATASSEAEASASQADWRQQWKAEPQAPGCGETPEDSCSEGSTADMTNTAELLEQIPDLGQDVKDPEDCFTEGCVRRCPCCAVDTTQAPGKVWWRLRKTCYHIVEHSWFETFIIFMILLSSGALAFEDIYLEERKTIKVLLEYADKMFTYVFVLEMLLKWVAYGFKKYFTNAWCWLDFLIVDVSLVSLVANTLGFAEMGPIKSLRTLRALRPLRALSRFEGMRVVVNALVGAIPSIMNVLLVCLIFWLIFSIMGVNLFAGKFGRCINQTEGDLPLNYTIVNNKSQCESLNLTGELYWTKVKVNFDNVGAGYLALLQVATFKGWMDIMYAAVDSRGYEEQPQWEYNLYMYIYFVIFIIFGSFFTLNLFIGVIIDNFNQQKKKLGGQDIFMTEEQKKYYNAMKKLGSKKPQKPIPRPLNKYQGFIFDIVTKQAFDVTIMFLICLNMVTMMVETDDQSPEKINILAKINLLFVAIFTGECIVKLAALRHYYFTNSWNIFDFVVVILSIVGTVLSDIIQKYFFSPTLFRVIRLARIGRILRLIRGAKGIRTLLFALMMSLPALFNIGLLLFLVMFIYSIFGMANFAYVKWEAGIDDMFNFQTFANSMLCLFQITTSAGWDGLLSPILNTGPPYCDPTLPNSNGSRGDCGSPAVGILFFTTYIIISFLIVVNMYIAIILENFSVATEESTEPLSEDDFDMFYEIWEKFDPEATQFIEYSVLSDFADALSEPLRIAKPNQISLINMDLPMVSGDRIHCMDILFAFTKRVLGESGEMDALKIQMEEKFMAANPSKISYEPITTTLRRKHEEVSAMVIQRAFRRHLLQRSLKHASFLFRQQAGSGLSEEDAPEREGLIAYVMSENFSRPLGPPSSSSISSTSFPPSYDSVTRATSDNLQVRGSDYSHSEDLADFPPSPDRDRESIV
T1 sequence (Q9UQD0 whole entry): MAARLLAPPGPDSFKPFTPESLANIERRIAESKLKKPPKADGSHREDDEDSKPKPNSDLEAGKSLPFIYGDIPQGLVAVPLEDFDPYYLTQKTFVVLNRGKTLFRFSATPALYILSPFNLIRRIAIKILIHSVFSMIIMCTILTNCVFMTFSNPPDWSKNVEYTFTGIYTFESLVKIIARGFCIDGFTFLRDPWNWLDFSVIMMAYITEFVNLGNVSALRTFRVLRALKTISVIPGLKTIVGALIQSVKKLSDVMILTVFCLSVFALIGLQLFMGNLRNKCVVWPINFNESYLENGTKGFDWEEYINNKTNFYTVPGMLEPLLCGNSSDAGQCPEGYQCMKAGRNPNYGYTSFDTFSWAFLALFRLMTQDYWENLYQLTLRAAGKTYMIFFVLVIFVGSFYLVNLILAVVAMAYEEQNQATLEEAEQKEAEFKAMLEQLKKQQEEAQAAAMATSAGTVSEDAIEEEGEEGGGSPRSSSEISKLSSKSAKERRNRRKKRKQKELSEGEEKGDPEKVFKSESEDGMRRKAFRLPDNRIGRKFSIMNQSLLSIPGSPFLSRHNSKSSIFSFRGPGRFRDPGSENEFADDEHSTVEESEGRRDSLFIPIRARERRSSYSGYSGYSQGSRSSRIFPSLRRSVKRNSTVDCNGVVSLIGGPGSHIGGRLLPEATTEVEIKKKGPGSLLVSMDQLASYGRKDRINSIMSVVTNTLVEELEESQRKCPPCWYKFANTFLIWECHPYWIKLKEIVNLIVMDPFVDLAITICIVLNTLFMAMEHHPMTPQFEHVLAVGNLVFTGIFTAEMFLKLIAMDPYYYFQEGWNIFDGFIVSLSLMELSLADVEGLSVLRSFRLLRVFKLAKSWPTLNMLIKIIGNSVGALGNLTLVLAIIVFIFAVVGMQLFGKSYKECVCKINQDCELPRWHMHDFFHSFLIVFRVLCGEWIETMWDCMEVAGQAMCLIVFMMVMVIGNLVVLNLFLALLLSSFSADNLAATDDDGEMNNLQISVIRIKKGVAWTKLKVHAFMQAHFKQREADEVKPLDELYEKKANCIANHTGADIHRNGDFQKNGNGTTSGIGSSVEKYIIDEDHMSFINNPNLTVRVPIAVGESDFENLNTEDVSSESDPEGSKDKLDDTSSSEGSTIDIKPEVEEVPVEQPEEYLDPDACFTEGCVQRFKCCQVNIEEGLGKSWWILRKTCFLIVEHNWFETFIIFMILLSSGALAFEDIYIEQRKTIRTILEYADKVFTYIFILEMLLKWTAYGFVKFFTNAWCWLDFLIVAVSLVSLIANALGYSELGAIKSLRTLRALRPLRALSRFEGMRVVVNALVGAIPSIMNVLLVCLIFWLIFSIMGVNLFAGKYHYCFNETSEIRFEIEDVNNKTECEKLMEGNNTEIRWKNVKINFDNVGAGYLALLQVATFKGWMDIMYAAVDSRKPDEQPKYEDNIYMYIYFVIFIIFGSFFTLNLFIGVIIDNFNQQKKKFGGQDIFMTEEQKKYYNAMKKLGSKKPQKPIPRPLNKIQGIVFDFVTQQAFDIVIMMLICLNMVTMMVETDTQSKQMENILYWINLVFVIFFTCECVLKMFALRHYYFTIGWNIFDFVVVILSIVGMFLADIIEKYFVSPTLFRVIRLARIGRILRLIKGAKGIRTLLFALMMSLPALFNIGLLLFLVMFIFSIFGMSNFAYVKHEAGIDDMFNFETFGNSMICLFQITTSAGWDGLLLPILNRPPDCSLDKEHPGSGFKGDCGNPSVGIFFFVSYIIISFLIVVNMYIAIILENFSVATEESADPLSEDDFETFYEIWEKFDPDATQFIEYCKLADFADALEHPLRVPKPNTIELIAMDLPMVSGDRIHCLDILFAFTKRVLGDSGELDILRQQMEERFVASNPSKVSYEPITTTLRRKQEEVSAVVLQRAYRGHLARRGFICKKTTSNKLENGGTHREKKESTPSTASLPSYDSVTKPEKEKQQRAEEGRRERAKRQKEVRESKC

Row | IC50 (NaV1.6 [1]) [µM] | IC50 (NaV1.1 [2]) [µM] | IC50 (NaV1.6 [3]) [µM] | IC50 (NaV1.1 [4]) [µM] | Compound | IC50 (NaV1.5) [µM]
1 | 0.949 | 4.03 | 0.292 | 1.42 | CC(Cc1cccnc1)Nc1cc(F)c(S(=O)(=O)Nc2nccs2)cc1Cl (stereo not shown) [Example 56, 5-chloro-2-fluoro-4-((1-(pyridin-3-yl)propan-2-yl)amino)-N-(thiazol-2-yl)benzenesulfonamide] | 30
2 | 0.138 | 17.3 | 0.052 | 3.1 | O=S(=O)(Nc1cccc(F)n1)c1cc(Cl)c(NCc2cccc3ccncc23)cc1F [Example 62, 5-chloro-2-fluoro-N-(6-fluoropyridin-2-yl)-4-((isoquinolin-8-ylmethyl)amino)benzenesulfonamide] | 30
3 | 0.392 | 14.1 | 0.066 | 10 | CN(C)CC(Nc1cc(F)c(S(=O)(=O)Nc2nccs2)cc1Cl)c1ccccc1 (stereo not shown) [Example 63, 5-Chloro-4-((2-(dimethylamino)-1-phenylethyl)amino)-2-fluoro-N-(thiazol-2-yl)benzenesulfonamide 2,2,2-trifluoroacetate] | 30
4 | 0.197 | 14.5 | 0.085 | 10 | CN(C)C[C@@H](Nc1cc(F)c(S(=O)(=O)Nc2nccs2)cc1Cl)c1ccccc1 [Example 64, (S)-5-chloro-4-((2-(dimethylamino)-1-phenylethyl)amino)-2-fluoro-N-(thiazol-2-yl)benzenesulfonamide 2,2,2-trifluoroacetate] | 30
5 | 1.02 | 2.23 | 0.087 | 10 | CN(C)C[C@H](Nc1cc(F)c(S(=O)(=O)Nc2nccs2)cc1Cl)c1ccccc1 [Example 65, (R)-5-chloro-4-((2-(dimethylamino)-1-phenylethyl)amino)-2-fluoro-N-(thiazol-2-yl)benzenesulfonamide 2,2,2-trifluoroacetate] | 30
6 | 1.01 | 0.908 | 1.11 | 10 | O=S(=O)(Nc1nccs1)c1cc(Cl)c(N[C@@H](CN2CCC2)c2ccccc2)cc1F [Example 66, (R)-4-((2-(azetidin-1-yl)-1-phenylethyl)amino)-5-chloro-2-fluoro-N-(thiazol-2-yl)benzenesulfonamide 2,2,2-trifluoroacetate] | 30
7 | 0.426 | 10.6 | 0.119 | 10 | O=S(=O)(Nc1nccs1)c1cc(Cl)c(N[C@H](CN2CCC2)c2ccccc2)cc1F [Example 67, (S)-4-((2-(azetidin-1-yl)-1-phenylethyl)amino)-5-chloro-2-fluoro-N-(thiazol-2-yl)benzenesulfonamide 2,2,2-trifluoroacetate] | 30
8 | 0.181 | 30 | 0.036 | 10 | O=S(=O)(Nc1nccs1)c1cc(Cl)c(N[C@H](CN2CCCC2)c2ccccc2)cc1F [Example 70, (S)-5-chloro-2-fluoro-4-((1-phenyl-2-(pyrrolidin-1-yl)ethyl)amino)-N-(thiazol-2-yl)benzenesulfonamide] | 30
9 | 7.11 | 30 | 0.955 | 10 | O=S(=O)(Nc1cccc(F)n1)c1cc(Cl)c(N[C@H](CN2CCCC2)c2ccccc2)cc1F [Example 72, (S)-5-chloro-2-fluoro-N-(6-fluoropyridin-2-yl)-4-((1-phenyl-2-(pyrrolidin-1-yl)ethyl)amino)benzenesulfonamide 2,2,2-trifluoroacetate] | 30
10 | 3.87 | 23.1 | 1.14 | 10 | O=S(=O)(Nc1cscn1)c1cc(Cl)c(N[C@H](CN2CCCC2)c2ccccc2)cc1F [Example 73, (S)-5-chloro-2-fluoro-4-((1-phenyl-2-(pyrrolidin-1-yl)ethyl)amino)-N-(thiazol-4-yl)benzenesulfonamide] | 30
11 | 0.521 | 2.52 | 0.052 | 1.85 | O=S(=O)(Nc1nccs1)c1cc(Cl)c(NC(CN2CCOCC2)c2ccccc2)cc1F (stereo not shown) [Example 74, 5-chloro-2-fluoro-4-((2-morpholino-1-phenylethyl)amino)-N-(thiazol-2-yl)benzenesulfonamide 2,2,2-trifluoroacetate] | 30
12 | 0.234 | 4.17 | 0.015 | 3.1 | C[C@H](Nc1cc(F)c(S(=O)(=O)Nc2nccs2)cc1Cl)c1ccccc1Cl [Example 78, (S)-5-chloro-4-((1-(2-chlorophenyl)ethyl)amino)-2-fluoro-N-(thiazol-2-yl)benzenesulfonamide] | 7.01
13 | 0.237 | 1.54 | 0.039 | 4.41 | C[C@H](Nc1ccc(S(=O)(=O)Nc2nccs2)cc1Cl)c1ccccc1F [Example 79, (S)-3-chloro-4-((1-(2-fluorophenyl)ethyl)amino)-N-(thiazol-2-yl)benzenesulfonamide] | 2.55
14 | 1.74 | 11.1 | 0.099 | 10 | O=S(=O)(Nc1nccs1)c1cc(Cl)c(O[C@H](c2ccccc2)C(F)(F)F)cc1F [Example 80, (R)-5-chloro-2-fluoro-N-(thiazol-2-yl)-4-(2,2,2-trifluoro-1-phenylethoxy)benzenesulfonamide] | 5.75
15 | 0.652 | 22.5 | 0.143 | 10 | CCC(Nc1ccc(S(=O)(=O)Nc2nccs2)cc1Cl)c1ccccn1 (stereo not shown) [Example 81, 3-chloro-4-((1-(pyridin-2-yl)propyl)amino)-N-(thiazol-2-yl)benzenesulfonamide] | 30
16 | 1.04 | 30 | 0.184 | 10 | C[C@H](Oc1ccc(S(=O)(=O)Nc2ncns2)cc1Cl)c1ccccc1 [Example 88, (S)-3-chloro-4-(1-phenylethoxy)-N-(1,2,4-thiadiazol-5-yl)benzenesulfonamide] | 18.2
17 | 0.948 | 3.85 | 0.239 | 10 | CC[C@H](Nc1cc(F)c(S(=O)(=O)Nc2cscn2)cc1Cl)c1ccccc1 [Example 89, (S)-5-chloro-2-fluoro-4-((1-phenylpropyl)amino)-N-(thiazol-4-yl)benzenesulfonamide] | 9.09
18 | 0.927 | 10.7 | 0.341 | 10 | O=S(=O)(Nc1nccs1)c1ccc(N[C@@H](CO)c2ccccc2)c(Cl)c1 [Example 91, (R)-3-chloro-4-((2-hydroxy-1-phenylethyl)amino)-N-(thiazol-2-yl)benzenesulfonamide] | 30
19 | 0.239 | 12.6 | 0.098 | 10 | O=S(=O)(Nc1cscn1)c1cc(Cl)c(NCc2cccc3ccncc23)cc1F [Example 96, 5-chloro-2-fluoro-4-((isoquinolin-8-ylmethyl)amino)-N-(thiazol-4-yl)benzenesulfonamide 2,2,2-trifluoroacetate] | 16
20 | 0.814 | 9.57 | 0.462 | 10 | C[C@H](Oc1cc(F)c(S(=O)(=O)Nc2cscn2)cc1Cl)c1ccccc1F [Example 101, (S)-5-chloro-2-fluoro-4-(1-(2-fluorophenyl)ethoxy)-N-(thiazol-4-yl)benzenesulfonamide] | 4.66
21 | 2.91 | 16.6 | 0.796 | 10 | O=S(=O)(Nc1nccs1)c1ccc(NC2(c3ccccc3)COC2)c(Cl)c1 [Example 103, 3-chloro-4-((3-phenyloxetan-3-yl)amino)-N-(thiazol-2-yl)benzenesulfonamide] | 28.8
22 | 0.582 | 4.43 | 0.153 | 4.51 | O=S(=O)(Nc1nccs1)c1ccc(NC2(c3ccccc3)CCC2)c(Cl)c1 [Example 104, 3-chloro-4-((1-phenylcyclobutyl)amino)-N-(thiazol-2-yl)benzenesulfonamide] | 6.29
23 | 0.564 | 3.73 | 0.027 | 3.6 | O=S(=O)(Nc1nccs1)c1cc(Cl)c(NC2(c3ccccc3)CCC2)cc1F [Example 105, 5-chloro-2-fluoro-4-((1-phenylcyclobutyl)amino)-N-(thiazol-2-yl)benzenesulfonamide] | 10.6
24 | 0.656 | 10.3 | 0.138 | 8.62 | O=S(=O)(Nc1nccs1)c1cc(Cl)c(NC2(c3ccccc3F)CCC2)cc1F [Example 107, 5-chloro-2-fluoro-4-((1-(2-fluorophenyl)cyclobutyl)amino)-N-(thiazol-2-yl)benzenesulfonamide] | 7.4
25 | 0.977 | 5.05 | 0.255 | 10 | C[C@H](Oc1cc(F)c(S(=O)(=O)Nc2nccs2)cc1Cl)c1cccc(F)c1 [Example 114, (S)-5-chloro-2-fluoro-4-(1-(3-fluorophenyl)ethoxy)-N-(thiazol-2-yl)benzenesulfonamide] | 4.64
26 | 1.39 | 17.5 | 0.135 | 10 | C[C@H](Oc1cc(F)c(S(=O)(=O)Nc2nccs2)cc1Cl)c1ccccc1 [Example 115, (S)-5-chloro-2-fluoro-4-(1-phenylethoxy)-N-(thiazol-2-yl)benzenesulfonamide] | 9.93
